*1 amine or outer side, *2 acyl side, *3 side chain or, on linkers, in order; H or OH if unused. Where a SMILES comes first, the peptide text is derived from it. Bridges are numbered along the chain shown (N, C = ends). [ ]: non-standard residue; d: D form. The star is where a group is joined. X119 = CC(=O)N1C2C=C(c3ccc(F)cc3C[C@@H](C(=O)[*:2])N(C)[*:1])CC1COC2; X137 = CN([C@@H](Cc1cc(F)ccc1-c1cnn(S(C)(=O)=O)c1)C(=O)[*:2])[*:1]; NMePhe(5-Cl,2-O(2-Pym)) = CN[C@@H](Cc1cc(Cl)ccc1Oc1ncccn1)C(=O)O; NMehhhLys(Me) = CN([C@@H](CCCCCCCN(C)[*:3])C(=O)[*:2])[*:1]; X117 = Cc1cc(-c2ccc(F)cc2C[C@@H](C(=O)[*:2])N(C)[*:1])cnn1; NMe3Pal(2-OcPr,5-F) = CN[C@@H](Cc1cc(F)cnc1OC1CC1)C(=O)O; X176 = CN([C@@H](Cc1cc(F)ccc1-c1cccnc1)C(=O)[*:2])[*:1]; NMe(hhhLys) = CN([C@@H](CCCCCCCN[*:3])C(=O)[*:2])[*:1]; Cyclobutanecarbonyl(1-CF3) = O=C(C1(C(F)(F)F)CCC1)*; cBuCO(3,3-F2-1-CF3) = O=C(C1(C(F)(F)F)CC(F)(F)C1)*; NMePhe(2,5-Cl2) = CN[C@@H](Cc1cc(Cl)ccc1Cl)C(=O)O; Pro(trans-4-F) = O=C(O)[C@@H]1C[C@@H](F)CN1; X155 = C[C@@](O)(C(=O)*)C(F)(F)F; Gly(cPr) = N[C@H](C(=O)O)C1CC1
Experiments:
NCI-H1048 cells = experiment: MTT proliferation assay, NCI-H1048; type: cell-based; details: 5 days compound exposure, 1:3 serial dilution starting at 10 μM;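 also: Dose-response in 96-well plates over 8 or 10 concentration points, with exposure spanning 3-4 cell doublings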
CyclinA2/CDK2 = target: T1, CyclinA2/CDK2 (Homo sapiens, UniProt P20248); experiment: Fluorescence Polarization (FP) competitive binding assay, Cyclin A2/Cdk2; details: 8 nM Cyclin A2/Cdk2, 2 nM FAM probe; average of 2-3 independent experiments; read-out: Cyclin A FP IC50;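 also: plates equilibrated two hours at room temperature before polarization reading, IC50 fitted from eight-concentration compound titration curves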
T1 construct: purchased CRELUX Protein Services

CyclinE1/CDK2 = target: T2, CyclinE1/CDK2 (Homo sapiens, UniProt P24864); experiment: Fluorescence Polarization (FP) competitive binding assay, Cyclin E1/Cdk2; details: 10 nM Cyclin E1/Cdk2, 2 nM FAM probe; average of 2-3 independent experiments; read-out: Cyclin E FP IC50;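 also: readings taken after two-hour equilibration at room temperature in HEPES buffer with NaCl, DTT, NP-40 and BSA, IC50 fitted from eight-concentration serial dilution series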
T2 construct: purchased Eurofins, discovery 14-475

OVCAR3 cells = experiment: MTT proliferation assay, OVCAR3; type: cell-based; details: 5 days compound exposure, 1:3 serial dilution starting at 10 μM;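 also: compound given as an 8- or 10-point series, one day after plating, with exposure covering roughly 3-4 cell doublings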
CyclinB1/CDK1 = target: T3, CyclinB1/CDK1 (Homo sapiens, UniProt P14635); experiment: Fluorescence Polarization (FP) competitive binding assay, Cyclin B1/Cdk1; details: 10 nM Cyclin B1/Cdk1, 2 nM FAM probe; average of 2-3 independent experiments; read-out: Cyclin B FP IC50;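 also: fluorescence polarization read after equilibration at room temperature, with IC50 taken from serially diluted dose-response curves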
T3 construct: purchased Eurofins, discovery 14-450

Structure (SMILES)	GI50 (NCI-H1048 cells) [nM]	IC50 (CyclinA2/CDK2) [nM]	IC50 (CyclinE1/CDK2) [nM]	GI50 (OVCAR3 cells) [nM]	IC50 (CyclinB1/CDK1) [nM]
CC(=O)N1C2C=C(c3ccc(F)cc3C[C@H]3C(=O)N(C)CCCCCCC[C@H](N(C)C(=O)[C@@H](NC(=O)[C@@H]4C[C@@H](F)CN4C(=O)C4(C(F)(F)F)CC(F)(F)C4)C4CC4)C(=O)N[C@@H](CC(C)C)C(=O)N3C)CC1CC2 (some centres unmarked) [Example 149]	30	20	560	40	20
CC(=O)N1C2C=C(c3ccc(F)cc3C[C@H]3C(=O)N(C)CCCCCCC[C@H](N(C)C(=O)[C@@H](NC(=O)[C@@H]4C[C@@H](F)CN4C(=O)C4(C(F)(F)F)CC(F)(F)C4)C4CC4)C(=O)N[C@@H](CC(C)C)C(=O)N3C)CC1COC2 (stereo partly drawn) [Example 124] ({cBuCO(3,3-F2-1-CF3)}-[Pro(trans-4-F)][Gly(cPr)][NMehhhLys(Me)]L[X119]; lactam 3-C)	20	20	540	20	20
CC(C)C[C@@H]1NC(=O)[C@@H](N(C)C(=O)[C@@H](NC(=O)[C@@H]2C[C@@H](F)CN2C(=O)C2(C(F)(F)F)CC(F)(F)C2)C2CC2)CC=CCCCCNC(=O)[C@H](Cc2cc(F)cnc2OC2CC2)N(C)C1=O [Example 125]	490	1010	1140	550	20
CC(C)C[C@@H]1NC(=O)[C@@H](N(C)C(=O)[C@@H](NC(=O)[C@@H]2C[C@@H](F)CN2C(=O)C2(C(F)(F)F)CC(F)(F)C2)C2CC2)CCCCCCCN(C)C(=O)[C@H](Cc2cc(F)cnc2OC2CC2)N(C)C1=O [Example 128] ({cBuCO(3,3-F2-1-CF3)}-[Pro(trans-4-F)][Gly(cPr)][NMehhhLys(Me)]L[NMe3Pal(2-OcPr,5-F)]; lactam 3-C)	30	80	190	30	20
CC(C)C[C@@H]1NC(=O)[C@@H](N(C)C(=O)[C@@H](NC(=O)[C@@H]2C[C@@H](F)CN2C(=O)C2(C(F)(F)F)CCC2)C2CC2)CC=CCCCCN(C)C(=O)[C@H](Cc2cc(Cl)ccc2Oc2ncccn2)N(C)C1=O [Example 157]	80	360	410	140	20
CC(C)C[C@@H]1NC(=O)[C@@H](N(C)C(=O)[C@@H](NC(=O)[C@@H]2C[C@@H](F)CN2C(=O)C2(C(F)(F)F)CC(F)(F)C2)C2CC2)CCCCCCCN(C)C(=O)[C@H](Cc2cc(F)ccc2-c2cccnc2)N(C)C1=O [Example 271] ({cBuCO(3,3-F2-1-CF3)}-[Pro(trans-4-F)][Gly(cPr)][NMehhhLys(Me)]L[X176]; lactam 3-C)	10	30	240	10	20
CC(C)C[C@@H]1NC(=O)[C@@H](N(C)C(=O)[C@@H](NC(=O)[C@@H]2C[C@@H](F)CN2C(=O)C2(C(F)(F)F)CCC2)C2CC2)CCCCCCCNC(=O)[C@H](Cc2cc(Cl)ccc2Oc2ncccn2)N(C)C1=O [Example 158] ({Cyclobutanecarbonyl(1-CF3)}-[Pro(trans-4-F)][Gly(cPr)][NMe(hhhLys)]L[NMePhe(5-Cl,2-O(2-Pym))]; lactam 3-C)	20	100	210	20	20
CC(C)C[C@@H]1NC(=O)[C@@H](N(C)C(=O)[C@@H](NC(=O)[C@@H]2C[C@@H](F)CN2C(=O)C2(C(F)(F)F)CC(F)(F)C2)C2CC2)CCCCCCCN(C)C(=O)[C@H](Cc2cc(F)ccc2-c2cnn(S(C)(=O)=O)c2)N(C)C1=O [Example 95] ({cBuCO(3,3-F2-1-CF3)}-[Pro(trans-4-F)][Gly(cPr)][NMehhhLys(Me)]L[X137]; lactam 3-C)	10	50	530	20	20
Cc1cc(-c2ccc(F)cc2C[C@H]2C(=O)N(C)CCCCCCC[C@H](N(C)C(=O)[C@@H](NC(=O)[C@@H]3C[C@@H](F)CN3C(=O)C3(C(F)(F)F)CC(F)(F)C3)C3CC3)C(=O)N[C@@H](CC(C)C)C(=O)N2C)cnn1 [Example 293] ({cBuCO(3,3-F2-1-CF3)}-[Pro(trans-4-F)][Gly(cPr)][NMehhhLys(Me)]L[X117]; lactam 3-C)	50	100	1990	90	20
CC(C)C[C@@H]1NC(=O)[C@@H](N(C)C(=O)[C@@H](NC(=O)[C@@H]2C[C@@H](F)CN2C(=O)[C@@](C)(O)C(F)(F)F)C2CC2)CCCCCCCNC(=O)[C@H](Cc2cc(Cl)ccc2Cl)N(C)C1=O [Example 10] (X155-[Pro(trans-4-F)][Gly(cPr)][NMe(hhhLys)]L[NMePhe(2,5-Cl2)]; lactam 3-C)	20	100	120	30	20

Reference: patent US20240408169A1 (priority 2023, published 2024)
